Values joined by “and” are separate entries in the source; they are usually repeats but may differ in a detail not shown here. Equal values may be shown once.
Key:
[1] = system: paramyxovirus (Sendai, SV); assay: Sendai virus (SV) replication in 37RC cells, hemagglutination assay; format: cell-based; conditions: for Virus yield: Table 2, SV; for Reduction of virus production: paramyxovirus, each agent given separately
[2] = system: Herpes Simplex type 1 virus (HSV-1); assay: HSV-1 replication in HEp-2 cells, CPE50% assay; format: cell-based, Herpes Simplex virus type 1
[3] = system: influenza A virus (WSN strain); assay: Influenza A virus (WSN) replication in A549 cells, hemagglutination assay; format: cell-based; conditions: for Virus yield: Table 2, WSN; for Decrease of virus production: influenza virus, each agent given separately
[4] = system: HIV-1; conditions: HIV-1 infection; cited from earlier work
[5] = system: coronavirus (CCoV, S-378 strain); assay: Coronavirus (CCoV) replication in A-72 cells, CPE50% assay; format: cell-based
[6] = system: transcription factor HSF (Heat Shock Factor); assay: Activation of HSF (Heat Shock Factor); format: cell-based; conditions: at the active antiviral concentrations, data not shown
[7] = system: poxvirus; conditions: cited from earlier work
[8] = system: coxsackie virus; conditions: cited from earlier work
[9] = system: 37RC cells infected with SV; assay: Cytoprotective effect in SV-infected 37RC cells (FIG. 1); format: cell-based, monkey; conditions: 37RC cells infected with SV for 24 hours, 400 microM INDO
Experimental: (§1) FIGS. 1 and 2 show the cytoprotective effect of INDO. Cells were infected as described in example 1.
FIG. 1A: 37RC cells non infected (control); FIG. 1B: 37RC cells infected with SV for 24 hours non treated (SV); FIG. 1C: 37RC cells infected with SV for 24 hours and treated with 400 microM INDO (SV+INDO).

[10] = system: virion; assay: Addition to the virus suspension or during virus adsorption; format: cell-based; conditions: INDO 5-10 mM, any of the viruses indicated
[11] = system: A-72 cells infected with CCoV; assay: Cytoprotective effect in CCoV-infected A-72 cells (FIG. 2); format: cell-based, canine; conditions: A-72 cells infected with CCoV for 24 hours, 400 microM INDO
Experimental: as §1
FIG. 2A: A-72 cells non infected (control); FIG. 2B: A-72 cells infected with CCoV for 24 hours non treated (CCoV); FIG. 2C: A-72 cells infected with CCoV for 24 hours and treated with 400 microM INDO (CCoV+INDO).

[12] = system: Vesicular Stomatitis Virus (VSV); conditions: VSV infection; cited from earlier work
[13] = system: host cell
[14] = system: herpesviruses; conditions: some herpesviruses; cited from earlier work
[15] = system: transcription factor NF-κB; assay: Activation of NF-κB induced by viral infection; format: cell-based; conditions: at the active antiviral concentrations, data not shown
[16] = system: rotavirus (SA-11 strain); assay: Rotavirus (SA-11) replication in MA104 cells, hemagglutination assay; format: cell-based; conditions: MA104, 24 h, read-out: IC50 (50% reduction of the virus titer)
[17] = system: GRP78/BiP; assay: Synthesis of stress protein GRP78/BiP; format: cell-based

SMILES: [Cl-].[Cl-].[Zn+2] [ZnCl2]
- Virus yield ([1]; ZnCl2 alone 50 μM): 60 % of control
- Virus yield ([2]; Table 2, HSV-1, ZnCl2 alone 50 μM): 8.3 % of control
- Virus yield ([3]; ZnCl2 alone 50 μM): 67 % of control

SMILES: Nc1nc2c(ncn2COCCO)c(=O)[nH]1 [ACY, acyclovir]
- Virus yield ([2]; Table 2, HSV-1, ACY alone 1 μM): 7.7 % of control

SMILES: CCCCC[C@H](O)C/C=C1/C(=O)C=C[C@@H]1C/C=C\CCCC(=O)O [Δ^12-PGJ2]
- Virus yield ([3]; Δ^12-PGJ2 alone 5 μM): 67 % of control
- Decrease of virus production [3]: approximately 30%

SMILES: CCCCC/C=C/C=C1/C(=O)C=C[C@@H]1C/C=C\CCCC(=O)O [15dx-PGJ2, 15deoxy-Δ^12-14-PGJ2]
- Virus yield ([1]; 15dx-PGJ2 alone 1 μM): 37 % of control
- Reduction of virus production [1]: 63%

SMILES: NC(=O)c1ncn([C@@H]2O[C@H](CO)[C@@H](O)[C@H]2O)n1 [RIB, ribavirin]
- Virus yield ([3]; RIB alone 50 μM): 58 % of control

SMILES: CCCCC[C@H](O)/C=C/[C@H]1C=CC(=O)[C@@H]1CCCCCCC(=O)O [PGA1]
- Virus yield ([2]; Table 2, HSV-1, PGA1 alone 25 μM): 9 % of control

SMILES: COc1ccc2c(c1)c(CC(=O)O)c(C)n2C(=O)c1ccc(Cl)cc1 [INDO, Indomethacin]
- Antiviral effect (literature) [4]: antiviral effect
- IC50 ([1]; Respirovirus muris, 24 h, read-out: IC50 (50% reduction of the virus titer)): 130 µM
- Virus yield ([1]; INDO alone 100 μM): 50 % of control and 60 % of control
- Reduction of virus production [1]: 40%
- IC50 ([5]; A-72, 24 h, read-out: IC50 (50% reduction of the virus titer)): < 50 µM
- inhibition at 50 µM ([5]; A-72, coronavirus, INDO 50 microM, read-out: Inhibition of virus production as compared to control): > 90%
- Activation of HSF (Heat Shock Factor) [6]: does not activate
- Antiviral effect (literature) [7]: no antiviral effect or to worsen the infection
- Antiviral effect (literature) [8]: no antiviral effect or to worsen the infection
- Virus yield ([2]; Table 2, HSV-1, INDO alone 25 μM): 28.2 % of control and 38.1 % of control
- Virus yield ([2]; Table 2, HSV-1, INDO alone 100 μM): 9.7 % of control
- Protective effect on cellular damage (cytopathic effect) caused by virus [9]: protected from the destructive cytopathic effect
- Effect on virus replication when added to the virus suspension or during virus adsorption [10]: no effect
- Protective effect on cellular damage (cytopathic effect) caused by virus [11]: protected from the destructive cytopathic effect
- Antiviral effect (literature) [12]: antiviral effect
- Concentrations non-toxic for the host cell [13]: 10 to 800 µM
- Antiviral effect (literature) [14]: antiviral effect
- Inhibition of NF-κB activation induced by the viral infection [15]: does not inhibit
- IC50 [16]: < 25 µM
- Synthesis of endoplasmic reticulum stress protein GRP78/BiP [17]: observed the synthesis
- Effect at 48 hours after infection [3]: lost its effect
- IC50 ([3]; Influenza A virus, WSN, A549, 24 h, read-out: IC50 (50% reduction of the virus titer)): 400 µM
- Virus yield ([3]; INDO alone 200 μM): 75 % of control
- Virus yield ([3]; INDO alone 400 μM): 67 % of control
- Decrease of virus production [3]: approximately 30%
